Each block holds one compound with its values, some of them ahead of it.
Assays:
fibrin clot formation = settings: CaCl2 between about 8 mM and about 30 mM; 5-fold zymogen, 3.5% (w/v) fibrinogen, tissue factor and phospholipids
Description: In the following experiment, the concentration range of calcium ion (CaCl2 concentration) as an inducer to accelerate fibrin clot formation in the zymogen (PPSB concentrate) and fibrinogen comprising mixture (prepared from BAC2) described in Example 1 was explored. In this Example, the zymogen mixture was prepared at a concentration of 10-fold (10 IU FII/ml), as compared to plasma, and mixed in the same volumetric ratio with the same fibrinogen solution as above (final 5-fold concentrations of zymogen, compared to plasma, and 3.5% (w/v) fibrinogen). No EDTA was used. In this experiment, initiation of clotting was performed using a calcium-depleted PT (prothrombin time) reagent comprising tissue factor and phospholipids; a clotting initiator that is typically present in bleeding/injured surfaces and on the surface of activated platelets, respectively. By using both tissue factor and phospholipids, a bleeding surface is simulated. CaCl2 at increasing concentrations was supplemented to the mixture and the clotting time was measured using a Start4 clotting analyzer (Diagnostica Stago).

fibrin [1] = target: T1, fibrin (Homo sapiens, UniProt P02671+P02675+P02679); experiment: Rate of fibrin clot formation at different GPRP concentrations, cessation of flow upon inversion of the tube; type: biochemical; settings: above molar ratio 340:1 GPRP:fibrin (40 mM GPRP at tested fibrinogen concentration)
fibrin [2] = target: T1, fibrin; experiment: as above; type: biochemical; settings: 3% fibrin, thrombin 100 IU/ml
Description: In the following experiment, the effect of adjusting the concentration of GPRP (SEQ ID NO: 1) inhibitor on fibrin clot formation rate was tested. GPRP (SEQ ID NO: 1) at different concentrations (0.1 mM, 0.2 mM, 0.5 mM, 1 mM, 1.5 mM, 2 mM, 3 mM, 4 mM, and 5 mM) was added to a fibrinogen containing solution (a fixed concentration of 3% w/v, prepared by diluting the BAC2 component of EVICEL® in 40 mM citrate buffer).
To generate fibrin monomers, dimers and/or oligomers, thrombin was added to the mixture; a 10% volume of the thrombin component of EVICEL® was added to yield a final concentration of 100 international units/ml (IU/ml). The rate of fibrin clot formation was measured by cessation of flow of the mixture upon inversion of the tube.

thrombin = thrombin (Homo sapiens, UniProt P00734); settings: cited from earlier work

T1 sequence (P02671 36-644 isoform P02671-2 limits assumed): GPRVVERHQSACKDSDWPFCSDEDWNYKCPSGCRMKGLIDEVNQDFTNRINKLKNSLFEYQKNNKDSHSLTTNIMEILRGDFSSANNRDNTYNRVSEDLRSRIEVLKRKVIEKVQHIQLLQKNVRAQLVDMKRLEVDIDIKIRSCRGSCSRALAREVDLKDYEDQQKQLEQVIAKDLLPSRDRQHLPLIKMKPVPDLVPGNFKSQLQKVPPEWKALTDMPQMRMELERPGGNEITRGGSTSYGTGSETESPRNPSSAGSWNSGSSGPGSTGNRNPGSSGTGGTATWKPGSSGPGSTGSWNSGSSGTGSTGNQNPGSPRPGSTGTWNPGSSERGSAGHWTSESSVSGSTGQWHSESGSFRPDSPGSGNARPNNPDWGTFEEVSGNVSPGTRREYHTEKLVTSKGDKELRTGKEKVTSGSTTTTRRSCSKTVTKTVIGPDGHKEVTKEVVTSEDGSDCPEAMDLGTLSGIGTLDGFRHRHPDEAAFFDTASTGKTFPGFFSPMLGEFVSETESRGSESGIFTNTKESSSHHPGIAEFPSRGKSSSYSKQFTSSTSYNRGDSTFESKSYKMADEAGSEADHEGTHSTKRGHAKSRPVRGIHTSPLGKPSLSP
T1 sequence (P02675 45-491 limits assumed): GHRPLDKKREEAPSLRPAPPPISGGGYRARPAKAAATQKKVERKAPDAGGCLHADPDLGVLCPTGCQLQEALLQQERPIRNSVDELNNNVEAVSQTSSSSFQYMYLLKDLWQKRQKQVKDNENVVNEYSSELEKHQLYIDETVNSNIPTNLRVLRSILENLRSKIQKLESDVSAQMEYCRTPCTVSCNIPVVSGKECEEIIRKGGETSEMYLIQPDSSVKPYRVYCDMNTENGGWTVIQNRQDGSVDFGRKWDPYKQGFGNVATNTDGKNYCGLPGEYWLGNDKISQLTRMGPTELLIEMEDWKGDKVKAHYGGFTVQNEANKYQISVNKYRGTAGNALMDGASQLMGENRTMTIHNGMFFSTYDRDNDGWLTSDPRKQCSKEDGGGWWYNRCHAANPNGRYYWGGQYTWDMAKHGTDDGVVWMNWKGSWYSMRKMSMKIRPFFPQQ
T1 sequence (P02679 27-437 isoform P02679-2 limits assumed): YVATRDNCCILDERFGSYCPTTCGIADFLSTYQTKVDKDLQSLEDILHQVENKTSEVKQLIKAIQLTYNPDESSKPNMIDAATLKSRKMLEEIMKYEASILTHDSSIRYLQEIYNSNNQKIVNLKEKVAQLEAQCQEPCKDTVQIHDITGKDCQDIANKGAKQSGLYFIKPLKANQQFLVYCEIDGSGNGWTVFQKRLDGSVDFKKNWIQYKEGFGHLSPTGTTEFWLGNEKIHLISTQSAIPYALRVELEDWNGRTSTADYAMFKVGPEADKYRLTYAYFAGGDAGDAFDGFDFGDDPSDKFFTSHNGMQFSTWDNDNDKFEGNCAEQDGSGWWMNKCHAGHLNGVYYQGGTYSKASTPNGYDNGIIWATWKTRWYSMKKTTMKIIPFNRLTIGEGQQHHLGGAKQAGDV

Compound: [Ca+2].[Cl-].[Cl-] [CaCl2, calcium chloride]
clotting time (fibrin clot formation): < 20 s

time for which no polymerization was observed (fibrin [1]): > 14 days | Time to clot (fibrin [2]; 0.1 mM GPRP): 5 s | Time to clot (fibrin [2]; 0.2 mM GPRP): 7 s | Time to clot (fibrin [2]; 0.5 mM GPRP): 11 s | Time to clot (fibrin [2]; 1 mM GPRP): 13 s | Time to clot (fibrin [2]; 1.5 mM GPRP): 22 s | Time to clot (fibrin [2]; 2 mM GPRP): 28 s | Time to clot (fibrin [2]; 3 mM GPRP): 150 s | Time to clot (fibrin [2]; 4 mM GPRP): 480 s | Time to clot (fibrin [2]; 5 mM GPRP): 900 s
Compound: Gly-Pro-Arg-Pro [GPRP]

Compound: hirudin
binds thrombin (affinity) (thrombin): picoM range

From patent publication US11957324B2, “Device and method for preparing and administering one-component fibrin sealant” (Ethicon, Inc., priority 2014, dated 2024)
